A short description of series [1]: refractive index (Na D-line) (dimensionless). To be noted: 298.15 K; 101.33 kPa; Liquid; Standard Abbe refractometry.
The conditions of series [2]: 101.33 kPa, Liquid, Vibrating tube method.

Numbers after ± are expanded uncertainties.

On to `CCCCn1cc[n+](C)c1.F[P-](F)(F)(F)(F)F` [1-butyl-3-methylimidazolium hexafluorophosphate], for which, in series [1], the refractive index turned out to be 1.4106 ± 0.0005. The mass density in series [2] (303.15 K) came to 1361.3 ± 1.7 kg/m3; in series [2] (313.15 K), 1353 ± 1.6 kg/m3; in series [2] (323.15 K), 1344.8 ± 1.6 kg/m3; in series [2] (333.15 K), 1336.7 ± 1.6 kg/m3; in series [2] (343.15 K) it was 1328.5 ± 1.6 kg/m3; in series [2] (353.15 K) it was 1320.5 ± 1.6 kg/m3. In addition, the mass density in series [2] (363.15 K) is given as 1312.4 ± 1.5 kg/m3.
In the case of `CCOS(=O)(=O)[O-].CCn1cc[n+](C)c1` [1-ethyl-3-methylimidazolium ethyl sulfate], the refractive index in series [1] amounted to 1.4106 ± 0.0005. Moreover, the mass density in series [2] (303.15 K) turned out to be 1233.7 ± 1.4 kg/m3; in series [2] (313.15 K) it was 1226.9 ± 1.3 kg/m3; in series [2] (323.15 K), 1220.2 ± 1.3 kg/m3; in series [2] (333.15 K), 1213.6 ± 1.3 kg/m3; in series [2] (343.15 K), 1207 ± 1.3 kg/m3; in series [2] (353.15 K), 1200.4 ± 1.3 kg/m3. The mass density in series [2] (363.15 K) was 1193.9 ± 1.3 kg/m3.

(Values after the NIST ThermoML archive (doi:10.1021/je3013414).)
